US20080275095A1, “Combination of Prostaglandin E2 Receptor Antagonists and Renin-Angiotensin System Inhibitors for Treating Renal Diseases” (Astellas Pharma Inc., priority 2004, published 2008)

Test system: rat uninephrectomized anti-Thy-1 nephritis model
Test: Combination effect of captopril and FR233074 on rat uninephrectomized anti-Thy-1 nephritis model
Assay type: in vivo
Details: for elevation in systolic blood pressure: 10 weeks after administration of the antibody, FIG. 9; for elevation in systolic blood pressure / glomerular and tubulointerstitial injury (histological observation): versus control group; for increase in urinary excretion of protein: 24-h urine up to 24 weeks after antibody, captopril 30 mg/kg/day, FR233074 20 mg/kg/day, FIG. 3; for time from the disease induction to the renal death (time point for 1/Cr=0.1): linear extrapolation from averaged 1/Cr and 1/Cr slope, FIG. 8; for rate of decline in renal function (1/Cr slope): single agents versus control, combination versus each agent alone, FIG. 7; for glomerular and tubulointerstitial injury (histological observation): FIG. 12-13
Description: Male Wistar rats (6-weeks old) were used for the example. These Wistar rats were anesthetized by administration of pentobarbital and subjected to unilateral nephrectomy. Two weeks later, these rats were injected with anti-Thy-1 antibody (gift of Department of Cell Biology, Institute of Nephrology, Niigata University Graduate School of Medical and Dental Sciences, Japan) from tail vein of them to induce anti-Thy-1 nephritis. Normal group were subjected to only ventrotomy without unilateral nephrectomy and injected with saline instead of anti-Thy-1 antibody.
One week after administration of the antibody, the rats were weighted, blood of the rats were collected (0.55 ml from subclavian vein), and 24-h urine collections were performed. Then, these rats were divided into the groups based on body weight, renal function parameters (BUN (blood urea nitrogen) and serum creatinine) and urinary excretion of protein.
The agents were administered to the rats for 23 weeks from the day of the grouping. 2, 4, 6, 8, 12, 16, 20 and 24 weeks after administration of the antibody (at 24 weeks after administration of the antibody, the administration of the agents was finished), the rats were weighted, blood of the rats were collected, 24-h urine collections were performed, and then, body weight, renal function parameters and urinary excretion of protein of the rats were determined. Systemic blood pressure of each rat was also measured at 10 weeks after administration of the antibody.
An averaged value of 1/Cr in each group at one week after disease induction was plotted, and drew down linearly, based on an averaged value of 1/Cr slope in each group. A time point for 1/Cr=0.1 was calculated, and defined as time reaching renal death (time point for 1/Cr=0.1 is one of standards for introducing dialytic therapy in clinical practice).

In the case of `O=C(NS(=O)(=O)Cc1ccccc1)c1cccc(C[C@@H]2CCCC=C2c2nc(-c3ccccc3)c(-c3ccccc3)o2)c1` [FR233074, N-benzylsulfonyl-3-{[(1S)-2-(4,5-diphenyloxazol-2-yl)-2-cyclohexen-1-yl]methyl}benzamide], the “elevation in systolic blood pressure” value was “no significant effect”, the “increase in urinary excretion of protein” value was “suppressed” and the “time from the disease induction to the renal death (time point for 1/Cr=0.1)” value was “prolonged”. The “rate of decline in renal function (1/Cr slope)” value was “decreased” and the “glomerular and tubulointerstitial injury (histological observation)” value was “extent of damage was reduced”.
In the case of `C[C@H](CS)C(=O)N1CCC[C@H]1C(=O)O` [captopril], the “elevation in systolic blood pressure” value was “suppressed”, the “increase in urinary excretion of protein” value was “suppressed” and the “time from the disease induction to the renal death (time point for 1/Cr=0.1)” value was “prolonged”. The “rate of decline in renal function (1/Cr slope)” value was “decreased” and the “glomerular and tubulointerstitial injury (histological observation)” value was “extent of damage was reduced”.
